What was measured:
[1] = system: parent elite stiff stalk inbred corn; assay: Preemergence herbicide application in greenhouse: fresh shoot weight and visual injury; type: in vivo; conditions: preemergence, 200 g/ha, mean of four replications
[2] = system: Heterozygous GAT-HRA corn; assay: as above; type: in vivo; conditions: preemergence, 200 g/ha, mean of four replications
[3] = system: parent elite stiff stalk inbred corn; assay: Postemergence herbicide application in greenhouse: fresh shoot weight and visual injury; type: in vivo; conditions: postemergence, 200 g/ha (glyphosate 3472 g ae/ha, glufosinate ammonium 1870 g/ha), mean of four replications
[4] = system: Heterozygous GAT-HRA corn; assay: as above; type: in vivo; conditions: postemergence, 200 g/ha (glyphosate 3472 g ae/ha, glufosinate ammonium 1870 g/ha), mean of four replications
GAT-HRA soybeans = assay: Postemergence herbicide treatment of soybeans in greenhouse, visual injury; type: in vivo, soybean; conditions: postemergence, glyphosate 8960, tribenuron-methyl 35, rimsulfuron 35 g/ha
Experimental: (§1) Young regenerated transgenic plants were sprayed with 1× glyphosate (1× rate of glyphosate is 1120 g/ha of glyphosate isopropylamine) to cull segregants. Four replications were performed for each treatment. Plants were then treated with various herbicides, including glyphosate and ALS-inhibitor herbicides.
(§2) Six soybean seeds from each variety to be assayed were planted 1 cm deep in 5.5 (13.97 cm) inch square plastic container of a synthetic growth medium. […] When possible, containers were thinned to two uniform plants. Non-transgenic lines were thinned to two uniform plants per container.
(§3) Results are expressed below in Table 11 as the mean of four replications.

[5] = system: Wild Type soybeans (Jack); assay: as above; type: in vivo, soybean; conditions: postemergence, glyphosate 8960, tribenuron-methyl 35, rimsulfuron 35 g/ha
Experimental: as §1, §2, §3

STS ® soybeans = assay: as above; type: in vivo, soybean
Excerpt: When possible, containers were thinned to two uniform plants.

[6] = system: Untransformed Coker 312 cotton; assay: Greenhouse over the top herbicide spray of cotton; type: in vivo, Gossypium hirsutum; conditions: glyphosate 1.5 lb ae/acre, 2 weeks after application; rimsulfuron 16 g active ingredient/hectare without glyphosate
Excerpt: Transformed cotton plants were rooted and then transferred to soil for further growth. Plants were then subjected to herbicide spray treatments in a greenhouse. […] Untransformed Coker 312 control plants were dead 2 weeks after glyphosate application. […] Plants transformed with both GAT and HRA were further subjected to an “over the top” application of the sulfonylurea herbicide rimsulfuron at a rate of 16 g active ingredient/hectare. […] In further experiments 32 g ai/ha rimsulfuron were applied to the cotton.

[7] = Zea mays, pre-emergence, 672 h, 0% no injury, 100% plant death, read-out: % Visual Injury
[8] = Zea mays, post-emergence, 0% no injury, 100% plant death, read-out: % Visual Injury

`CCS(=O)(=O)c1cccnc1S(=O)(=O)NC(=O)Nc1nc(OC)cc(OC)n1` [Rimsulfuron] was tested, and the pest or weed control at 200 g/ha [1, 7] was 74%, the “Fresh Weight” value ([1]; fresh shoots weighed 4 weeks after treatment, untreated 36.7 g) was 29.8 g and the pest or weed control at 200 g/ha [2, 7] was 0%. For the same molecule, the “Fresh Weight” value ([2]; fresh shoots weighed 4 weeks after treatment, untreated 47.0 g) was 45.3 g, the pest or weed control at 200 g/ha [3, 8] was 91% and the “Fresh Weight” value ([3]; weighed 2 weeks after treatment, untreated 76.4 g) was 12.6 g. For the same molecule, the pest or weed control at 200 g/ha [4, 8] was 10%, the “Fresh Weight” value ([4]; weighed 2 weeks after treatment, untreated 98.8 g) was 99.2 g and the “% Visual Injury” value (GAT-HRA soybeans; event 59, mean) was 87%. For the same molecule, the “% Visual Injury” value (GAT-HRA soybeans; event 59 line 21) was 88%, the “% Visual Injury” value (GAT-HRA soybeans; event 59 line 28) was 86% and the “% Visual Injury” value (GAT-HRA soybeans; event 60, mean) was 83%. The “% Visual Injury” value (GAT-HRA soybeans; event 60 line 07) was 84%, the “% Visual Injury” value (GAT-HRA soybeans; event 60 line 11) was 83% and the “% Visual Injury” value (GAT-HRA soybeans; event 60 line 22) was 76%. The “% Visual Injury” value (GAT-HRA soybeans; event 60 line 35) was 85%, the “% Visual Injury” value (GAT-HRA soybeans; event 60 line 41) was 80% and the “% Visual Injury” value (GAT-HRA soybeans; event 60 line 46) was 78%. The “% Visual Injury” value (GAT-HRA soybeans; event 60 line 70) was 80%, the “% Visual Injury” value (GAT-HRA soybeans; event 60 line 75) was 86% and the “% Visual Injury” value (GAT-HRA soybeans; event 60 line 77) was 90%. For the same molecule, the “% Visual Injury” value (GAT-HRA soybeans; event 60 line 79) was 86%, the “% Visual Injury” value (GAT-HRA soybeans; event 60 line 82) was 90% and the “% Visual Injury” value (GAT-HRA soybeans; event 60 line 84) was 83%. The “% Visual Injury” value (GAT-HRA soybeans; event 61, mean) was 82%, the “% Visual Injury” value (GAT-HRA soybeans; event 61 line 02) was 80% and the “% Visual Injury” value (GAT-HRA soybeans; event 61 line 02B) was 70%. For the same molecule, the “% Visual Injury” value (GAT-HRA soybeans; event 61 line 05) was 78%, the “% Visual Injury” value (GAT-HRA soybeans; event 61 line 14) was 90% and the “% Visual Injury” value (GAT-HRA soybeans; event 61 line 18) was 89%. The “% Visual Injury” value (GAT-HRA soybeans; event 61 line 24) was 90%, the “% Visual Injury” value (GAT-HRA soybeans; event 61 line 33) was 95% and the “% Visual Injury” value (GAT-HRA soybeans; event 61 line 34) was 90%. The “% Visual Injury” value (GAT-HRA soybeans; event 61 line 47) was 78%, the “% Visual Injury” value (GAT-HRA soybeans; event 61 line 49) was 84% and the “% Visual Injury” value (GAT-HRA soybeans; event 61 line 51) was 83%. The “% Visual Injury” value (GAT-HRA soybeans; event 61 line 60) was 73%, the “% Visual Injury” value (GAT-HRA soybeans; event 61 line 62) was 71% and the “% Visual Injury” value (GAT-HRA soybeans; event 61 line 99) was 79%. For the same molecule, the “% Visual Injury” value (GAT-HRA soybeans; event 64, mean) was 73%, the “% Visual Injury” value (GAT-HRA soybeans; event 64 line 41) was 73% and the “% Visual Injury” value (GAT-HRA soybeans; event 64 line 47) was 73%. The “% Visual Injury” value ([5]; Wild Type line 82) was 97%, the “% Visual Injury” value ([5]; Wild Type line Jack) was 97% and the “% Visual Injury” value ([5]; Wild Type, mean) was 97%. The “% Visual Injury” value (STS ® soybeans; STS ® line 25, glyphosate 8960, tribenuron-methyl 35, rimsulfuron 35 g/ha) was 97%, the “% Visual Injury” value (STS ® soybeans; STS ® line 46, glyphosate 8960, tribenuron-methyl 35, rimsulfuron 35 g/ha) was 97% and the “% Visual Injury” value (STS ® soybeans; STS ®, mean, glyphosate 8960, tribenuron-methyl 35, rimsulfuron 35 g/ha) was 97%. For the same molecule, the “damage to untransformed control plants” value [6] was “severe damage”.
